Data set [1] has as its target T1, OCT3 (Rattus norvegicus, UniProt O88446).
T1 sequence (O88446 1-551): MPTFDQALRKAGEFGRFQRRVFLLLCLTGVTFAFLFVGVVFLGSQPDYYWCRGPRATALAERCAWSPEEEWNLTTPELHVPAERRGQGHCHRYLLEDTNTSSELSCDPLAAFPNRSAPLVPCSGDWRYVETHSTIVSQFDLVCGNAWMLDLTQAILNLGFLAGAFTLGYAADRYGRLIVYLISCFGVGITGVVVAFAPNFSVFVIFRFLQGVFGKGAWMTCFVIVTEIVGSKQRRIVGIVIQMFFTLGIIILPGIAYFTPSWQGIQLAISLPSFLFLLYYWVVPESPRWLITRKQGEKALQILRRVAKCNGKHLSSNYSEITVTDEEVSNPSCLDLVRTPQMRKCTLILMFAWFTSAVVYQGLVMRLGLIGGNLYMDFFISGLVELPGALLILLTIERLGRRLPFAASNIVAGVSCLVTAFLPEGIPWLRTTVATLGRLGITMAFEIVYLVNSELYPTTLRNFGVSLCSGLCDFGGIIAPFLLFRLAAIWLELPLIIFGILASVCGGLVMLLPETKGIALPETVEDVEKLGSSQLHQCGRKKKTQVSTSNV
Briefly: In situ open-circuit perfusion of rat term placenta: 5-HT extraction from fetal circulation. It is filed as in vivo.

The target in data set [2] is T2, OCT3 (Homo sapiens, UniProt O75751).
T2 construct: MVM and BM vesicles were used to evaluate the effects of antidepressants on SERT- and OCT3-mediated uptake of 5-HT, respectively; from tissue; host or cells: human term placenta, basal membrane (BM) vesicles
T2 sequence (O75751 1-556): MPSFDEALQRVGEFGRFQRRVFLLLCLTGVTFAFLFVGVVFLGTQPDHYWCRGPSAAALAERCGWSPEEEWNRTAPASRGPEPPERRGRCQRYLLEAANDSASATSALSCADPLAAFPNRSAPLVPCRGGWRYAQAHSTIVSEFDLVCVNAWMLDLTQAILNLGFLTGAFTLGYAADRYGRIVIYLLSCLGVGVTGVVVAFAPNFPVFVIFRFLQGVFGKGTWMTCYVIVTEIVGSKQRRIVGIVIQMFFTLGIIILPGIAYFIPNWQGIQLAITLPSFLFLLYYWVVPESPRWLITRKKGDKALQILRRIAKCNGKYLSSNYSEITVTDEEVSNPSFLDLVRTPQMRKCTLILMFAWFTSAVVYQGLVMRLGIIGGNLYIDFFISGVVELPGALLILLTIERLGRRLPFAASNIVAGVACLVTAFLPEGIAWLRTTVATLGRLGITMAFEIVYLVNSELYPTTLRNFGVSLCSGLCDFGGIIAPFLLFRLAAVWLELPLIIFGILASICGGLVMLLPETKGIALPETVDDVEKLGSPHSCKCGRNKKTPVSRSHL
Briefly: [3H]5-HT uptake by basal membrane (BM) vesicles from human term placenta. The data set is classed as biochemical. The note with it: 100 nM [3H]5-HT, 10 min preincubation, room temperature, n ≥ 4, read-out: IC50 BM (OCT3-mediated 5-HT uptake).
Protocol: Maternal decidua and chorionic plate were removed, and placental villous tissue was cut into small pieces. The tissue was homogenized in a solution containing 250 mM sucrose, 10 mM Tris-Hepes (pH 7.2), 5 mM EGTA, 5 mM EDTA and 1 mM phenylmethylsulfonyl fluoride (PMSF). Microvillous and basal membrane (MVM and BM, respectively) vesicles were prepared simultaneously, using a previously described differential centrifugation method based on Mg^2+ precipitation and separation of MVM and BM in a sucrose gradient [40]. All these procedures were performed at 4 °C.
MVM and BM samples were resuspended in intravesicular buffer (290 mM sucrose, 5 mM Hepes, 5 mM Tris; pH 7.4), and vesiculated by passaging 20 times through a 25-gauge needle as previously described [32]. Protein concentration was measured using the BCA assay.
Uptake of [^3H]5-HT into MVM or BM vesicles was measured at room temperature using the rapid vacuum filtration technique as previously described [32]. […] Filter-associated radioactivity was determined by liquid scintillation counting. Non-specific tracer binding to the filter and plasma membranes was accounted for by subtracting radioactivity measured in protein-free controls and uptake at time zero, respectively, from the total vesicle uptake measurements. […]

The nature of data set [3]: Published plasma concentrations and fetal-to-maternal ratios in (pregnant) women. It is filed as in vivo, human. The settings on record: matches Ca x F/M ratio of published values.
The conditions of data set [4]: pregnant women or women; read-out: Cmax (maximum steady-state plasma concentration); cited from earlier work.
[5] abbreviates: 100 µM antidepressant, male placentas.
The mark [6] stands for this setting: 1 µM (therapeutic concentration), fetal sex not considered.
The mark [7] stands for this setting: 100 µM antidepressant, 1 nM [3H]5-HT, both fetal sexes together, vs control.

Where a name gives a salt, the structure may show the parent alone.

A word on the IC50: it is the concentration that gives 50% inhibition.

In the case of `COc1ccc(C(CN(C)C)C2(O)CCCCC2)cc1` (centres unmarked) [Venlafaxine, venlafaxine hydrochloride], the “Effect on 5-HT extraction from circulation of male fetuses” value (shortened to “Effect … of male fetuses”) on OCT3 [1] (setting [5]) is “susceptible to inhibition”.

With `CCN1/C(=C/c2ccc3ccccc3[n+]2CC)C=Cc2ccccc21.[I-]` [decynium-22], the “Effect of model OCT3 inhibitor on 5-HT extraction from fetal circulation” value at OCT3 [1] (10 µM decynium-22) is “sensitive to co-administration of decynium-22”.

Take `COCCCC/C(=N\OCCN)c1ccc(C(F)(F)F)cc1` [Fluvoxamine, fluvoxamine maleate]: the IC50 at OCT3 [2] was 15.2 nM. The “Effect on placental extraction of 5-HT from fetal circulation” value (“Effect on placental extraction of 5-HT” below) is “no significant inhibition” on OCT3 [1] (setting [6]) and “significantly decreased” on OCT3 [1] (setting [7]). For the same molecule, the “Effect … of male fetuses” value at OCT3 [1] (setting [5]) was “susceptible to inhibition”. For the same molecule, in data set [3], the “Ca;fetal (average fetal plasma concentration)” value turned out to be 348 nM. Further, the Cmax in data set [4] is 1300 nM.

Consider `Fc1ccc([C@@H]2CCNC[C@H]2COc2ccc3c(c2)OCO3)cc1` [Paroxetine, paroxetine hydrochloride], for which, at OCT3 [2], the concentration for half-maximal inhibition (IC50) is 4.39 nM. Further, the “Effect on placental extraction of 5-HT” value at OCT3 [1] (setting [6]) is given as “no significant inhibition”; on OCT3 [1] (setting [7]) it was “significantly decreased”. The “Effect on 5-HT extraction from fetal circulation in male placentas” value at OCT3 [1] (1 µM (therapeutic concentration), male placentas) is reported as “potent inhibitor in males”. On OCT3 [1] (100 µM antidepressant, female placentas), the “Effect on 5-HT extraction from circulation of female fetuses” value is given as “prone to inhibition”. Further, the “Effect … of male fetuses” value at OCT3 [1] (setting [5]) is “susceptible to inhibition”. Moreover, the Cmax in data set [4] is 1000 nM.

`CN(C)CCCC1(c2ccc(F)cc2)OCc2cc(C#N)ccc21` (centres unmarked) [Citalopram, citalopram hydrobromide]: the “Effect on placental extraction of 5-HT” value on OCT3 [1] (setting [6]) is “no significant inhibition”; at OCT3 [1] (setting [7]), “significantly decreased”. Moreover, the Cmax in data set [4] was 1200 nM.

With `CN[C@H]1CC[C@@H](c2ccc(Cl)c(Cl)c2)c2ccccc21` [Sertraline, sertraline hydrochloride], the “Effect … of male fetuses” value on OCT3 [1] (setting [5]) is “susceptible to inhibition”.

For `CNCCC(Oc1ccc(C(F)(F)F)cc1)c1ccccc1` (centres unmarked) [Fluoxetine, fluoxetine hydrochloride], the “Effect … of male fetuses” value on OCT3 [1] (setting [5]) was “susceptible to inhibition”.

The record behind these values is paper PMC8397948, “Effect of Selected Antidepressants on Placental Homeostasis of Serotonin: Maternal and Fetal Perspectives” (Pharmaceutics, 2021).
